Reference: ChEMBL document CHEMBL1125586, “Novel thiophene-, pyrrole-, furan-, and benzenecarboxamidotetrazoles as potential antiallergy agents” (J Med Chem, 1991)
≈ marks a conversion by molar mass, not a printed value.

What was measured:
Homo sapiens [1] = organism: Homo sapiens; test: cells
Description: Percent inhibition of histamine release from human basophils at a concentration of 10 uM.

Homo sapiens [2] = organism: Homo sapiens; test: cells; remark: listed apart in the source
Description: Percent inhibition of histamine release from human basophils at a concentration of 33 uM.

Homo sapiens [3] = organism: Homo sapiens; test: cells; remark: listed apart in the source
Description: Compound was tested for the concentration to inhibit 50% of anti-IgE-stimulated histamine release from human basophils.

physchem [4] = details: buffer, pH 7.4
Description: Log P value was determined at pH 7.4 using correlation (HPLC) method.

physchem [5] = details: buffer, pH 7.4; remark: listed apart in the source
Description: Solubility was determined at pH 7.4

Row | IC50 (Homo sapiens [3]) [µM] | chromatographic logD (physchem [4]) | solubility (physchem [5]) [µg/mL] | SMILES | inhibition at 10 µM (Homo sapiens [1]) [%] | inhibition at 33 µM (Homo sapiens [2]) [%]
1 |  |  |  | Cc1sc(C(=O)Nc2nn[nH]n2)c(OC(C)C)c1OC(C)C | < 25 | < 25
2 | 5 |  |  | Cc1sc(C(=O)Nc2nn[nH]n2)c(OCc2ccccc2)c1Br | 68 | 91
3 |  |  |  | Cc1sc(C(=O)Nc2nn[nH]n2)c(OC(C)C)c1C | < 25 | < 25
4 |  |  |  | CC(C)Sc1c(C(=O)Nc2nn[nH]n2)oc(Br)c1Br | < 25 | < 25
5 | 25 | 2.52 | 1900 (≈ 4.66 mM) | CC(C)Oc1c(Br)c(Br)n(C)c1C(=O)Nc1nn[nH]n1 | 37 | 69
6 |  |  |  | COc1ccc(C(=O)Nc2nn[nH]n2)c(OC(C)C)c1Br | < 25 | 60
7 | 10 | 1.17 |  | COc1ccc(C(=O)Nc2nn[nH]n2)c(OC(C)C)c1I | 51 | 73
8 |  |  |  | CC(C)Oc1c(Br)c(Br)n(-c2ccccc2)c1C(=O)Nc1nn[nH]n1 | < 25 | < 25
9 | 1.1 | 1.78 | 1840 (≈ 5.52 mM) | COc1ccc2sc(C(=O)Nc3nnn[nH]3)c(OC(C)C)c2c1 | 95 | 97
10 |  |  |  | CCCc1c2oc(C(=O)O)cc(=O)c2cc2c(=O)cc(C(=O)O)n(CC)c12 [NEDOCROMIL] | < 25 | < 25
11 |  |  |  | CC(C)Oc1c(Br)csc1C(=O)Nc1nn[nH]n1 | 30 | 47
12 |  |  |  | COc1ccc(C(=O)Nc2nn[nH]n2)c(OC(C)C)c1[Si](C)(C)C | < 25 | < 25
13 | 2 | 1.72 | 3300 (≈ 9.53 mM) | Cc1sc(C(=O)Nc2nn[nH]n2)c(OC(C)C)c1Br | 85 | 97
14 |  |  |  | COc1c(C(=O)Nc2nn[nH]n2)sc(C)c1Br | < 25 | 53
15 |  |  |  | CC(C)Oc1c(Br)c(Br)n(Cc2ccccc2)c1C(=O)Nc1nn[nH]n1 | < 25 | < 25
16 | 5 |  |  | CCOc1c(C(=O)Nc2nn[nH]n2)sc(C)c1Br | 77 | 100
17 | 5 |  |  | Cc1sc(C(=O)Nc2nn[nH]n2)c(SC(C)C)c1Br | 74 | 90
18 | 8.5 | 2.8 | < 1 | COc1ccc2c(c1)c1oc(C(=O)Nc3nn[nH]n3)c(OC)c1n2-c1ccccc1 | 66 | 91
19 | 8 |  |  | Cc1sc(C(=O)Nc2nn[nH]n2)c(OC(C)C)c1Cl | 55 | 88
20 | 2 | 1.35 | 1900 (≈ 5.25 mM) | COc1sc(C(=O)Nc2nn[nH]n2)c(OC(C)C)c1Br | 92 | 95
21 |  |  |  | CC(C)Oc1c(C(=O)Nc2nn[nH]n2)sc(C(C)C)c1Br | < 25 | < 25
22 |  |  |  | CC(C)Oc1c(C(=O)Nc2nn[nH]n2)sc(-c2ccccc2)c1Br | < 25 | < 25
23 |  |  |  | CC(C)Oc1c(C(=O)Nc2nn[nH]n2)[nH]c(Br)c1Br | < 25 | < 25
24 |  |  |  | Cc1sc(C(=O)Nc2nn[nH]n2)c(OC(C)C)c1C(C)C | < 25 | < 25
25 |  |  |  | COc1c(Br)cc(C(=O)Nc2nn[nH]n2)c(OC(C)C)c1Br | < 25 | 28
26 |  |  |  | Cc1cc(OC(C)C)c(C(=O)Nc2nn[nH]n2)s1 | < 25 | < 25
27 |  |  |  | COc1ccc(C(=O)Nc2nn[nH]n2)c(OC(C)C)c1 | < 25 | 41
28 |  | 2.66 | 70 (≈ 0.178 mM) | COc1ccc2c(c1)c(OC(C)C)c(C(=O)Nc1nn[nH]n1)n2-c1ccccc1 | 46 | 82
